Assay results from patent US12102685B2, “Immodulator peptides covalently modified with small molecules” (priority 2020, dated 2024).
Marks after values point to notes of the source that are not given here. Peptide text beside a SMILES is read from it.

Legend:
[1] = system: COL1 in HFF-1 dermal fibroblasts; test: Collagen-1 ELISA in HFF-1 dermal fibroblasts (x11A); type: cell-based; details: peptide 2 uM, 72 hour; control (buffer) = 100
Procedure: Immune modulation functions of immodulator peptides have potential untility in the field of cosmetics. HFF-1 cell line was obtained from American Type Culture Collection (ATCC). Cells were grown in a T-75 flask in DMEM Medium containing 10% fetal bovine serum and penicillin-streptomycin at 37° C. in a humidified, 5% CO2 incubator. Cells ([…], 2,000 cells/well) were plated in a 96-well plate and incubated overnight at 37° C. in a humidified, 5% CO2 incubator. Next day, […] of compounds were added (quadruplicate wells). After 72 hour incubation with the compound, supernatants were collected for Collagen-1 ELISA assay and cell viability was measured in a luminometer after the addition of […] CellTiterGlo reagent (Promega Inc, Madison, WI) as recommended by the manufacturer.
Collagen stimulating activity of immodulator peptides in HFF-1 dermal fibroblasts. Peptides were added to cells at 2 uM. COL1 immunoreactivity was measured in the supernatants of cultured cells by ELISA using a rabbit monoclonal anti-COL1 primary antibody (Abcam, Cambridge, MA). Control (buffer) value of immunoreactivity was set to 100.

[2] = Alexa488-SA-labelled IM1-IM6 binding to metal-charged NTA-coated plate (x2B d); details: no peptide background = 1.0
Procedure: NTA-metal-affinity fluorescence assay was performed using 96-well NTA-metal-coated plates readily available from commercial sources such as Qiagen (Germantown, MD). NTA was charged with ferrous or ferric iron, zinc, copper, calcium, vanadium, ruthenium, cobalt, titanium, manganese or other metals. 400 ng of FITC-labeled immodulator peptide (or biotinylated immodulator peptide complexed to Alexa-488-labeled streptavidin) in PBS buffer was added per plate. After incubation at room temperature for 60 minutes, excess peptide was washed off and peptide was detected by measuring fluorescence (excitation 490 nm, emmission 525 nm) in a fluorometer. • (a) Using FITC-labeled IM3 peptide (1 ug/well) in the fluorescent binding assay: • EDTA-treated control: 2,251±1,186 • Ferrous iron: 170,441±11,264 (p<0.001)* • Copper: 13,644±5566 (p<0.05)* • Calcium: 48,822±11,990 (p<0.01)* • *p values are relative to EDTA-treated control • (b) Competition binding assay to ferrous iron, calcium, copper and zinc-charged NTA-coated plates using FITC-labeled IM3 peptide (0.5 uM) and 8× (4 uM) unlabelled competitor peptides IM3N1, IM3N2 (*all comparisons to PBS control are p<0.01); # fluorescent value of binding to […] was set at 100.
Ferrous iron # (100±2.6*); Control (no metal): 6.4±3.1; Ferric iron: 94.1±6.6*; Calcium: 47.6±3.7*; Vanadium: 53.9±5.5*; Manganese: 54.4±11.2*; Cobalt: 25.4±2.3*; Copper: 58.4±6.4*; Zinc: 71.4±8.3*; Ruthenium: 67.8±8.3*; (d) Alexa488-SA-labelled immodulator peptide IM1, IM2, IM3, IM4, IM5, IM6 (400 ng/well) were bound to NTA-coated plate charged with the indicated metals: # background (no peptide) control set to 1.0;*p<0.05, **p<0.01 vs “no peptide”

[3] = Binding to heparin-agarose spin column (x3D); details: 1 ug SA488-labelled peptide
Procedure: 1 ug Streptavidin-Alexa 488 conjugate (SA488)-labelled IM peptide in PBS buffer was loaded on a spin column packed with 0.2 ml bed volume heparin-agarose (G-Biosciences, St. Louis, MO). The column was centrifuged for 2 min at 2,000 G and the flow-through was collected. The column was then washed with 0.3 ml 1% BSA in PBS buffer and the column spin repeated. Flowthrough and wash were pooled and duplicate 20 uL aliquots counted in a standard fluorometer (excitation/emission 485/525 nm). Results are expressed as percentage of input counts that bound the heparin-agarose column, versus flowthrough. Percent counts bound to heparin-agarose resin are shown below. IM3, IM5 and IM6 peptides bind heparin-agarose in this assay.

[4] = FITC-PI(4,5)P2 binding to plate-bound peptide with calcium (x9A)
Procedure: Immodulator peptides IM1, IM3 and IM5 (400 ng/well) in PBS were bound to streptavidin-coated 96-well plates at room temperature for 60 minutes, in the presence or absence of 500 uM calcium chloride. Each well also received 200 ng cold PPI plus 10 ng FITC-labeled PI(4,5)P2 or PI(4)P1. The tables below show the relative fluorescence (with/without calcium background) expressed as a percentage of the highest binder, FITC-PI(4,5)P2+cold PI(3,5)P2, which was 2,496 fluorescence units. Background binding without calcium was, in all cases, 200-300 fluorescence units.

[5] = cold PPI: None, 500 uM calcium chloride

Row | Compound | COL1 immunoreactivity in supernatant [1] | fluorescence ([2]; Calcium) | fluorescence ([2]; Copper) | fluorescence ([2]; Ferrous iron, 400 ng/well) | fluorescence ([2]; Zinc) | Percent Flowthrough [3] | Percent retained [3] | relative fluorescence, FITC-PI(4,5)P2 bound ([4]; cold PPI: 3,4,5-P3, calcium) | relative fluorescence, FITC-PI(4,5)P2 bound ([4]; cold PPI: 3,4-P2, calcium) | relative fluorescence, FITC-PI(4,5)P2 bound ([4]; cold PPI: 3,5-P2, calcium) | relative fluorescence, FITC-PI(4,5)P2 bound ([4]; cold PPI: 3-P1, calcium) | relative fluorescence, FITC-PI(4,5)P2 bound ([4]; cold PPI: 4,5-P2, calcium) | relative fluorescence, FITC-PI(4,5)P2 bound ([4]; cold PPI: 4-P1, calcium) | relative fluorescence, FITC-PI(4,5)P2 bound ([4]; cold PPI: 5-P1, calcium) | relative fluorescence, FITC-PI(4,5)P2 bound [4, 5] | fluorescence of the highest binder ([4]; FITC-PI(4,5)P2 + cold PI(3,5)P2, calcium)
1 | CSCC[C@H](NC(=O)[C@H](CO)NC(=O)[C@@H](NC(=O)[C@H](CCC(=O)O)NC(=O)[C@H](CS)NC(=O)[C@H](CCC(N)=O)NC(=O)[C@H](CCCNC(=N)N)NC(=O)[C@H](CO)NC(=O)[C@H](Cc1c[nH]cn1)NC(=O)[C@H](Cc1ccc(O)cc1)NC(=O)[C@H](Cc1ccccc1)NC(=O)CNC(=O)[C@H](CC(N)=O)NC(=O)[C@@H](N)CCCCN)[C@@H](C)O)C(=O)N[C@@H](CC(=O)O)C(=O)NCC(=O)N[C@@H](CCC(=O)O)C(=O)N[C@@H](C)C(=O)NCC(=O)N[C@@H](CC(C)C)C(=O)N[C@@H](CS)C(=O)N[C@@H](Cc1c[nH]c2ccccc12)C(=O)O [IM1] (H-KNGFYHSRQCETSMDGEAGLCW-OH; N-terminus and C-terminus assumed) | 98 | 1.1 ± 0.1 | 3.0 ± 0.1** | 1.2 ± 0.3 | 1.1 ± 0.2 | 100.0% | 0% | 0.1 percentage of the highest binder | 1.1 percentage of the highest binder | 4.3 percentage of the highest binder | 3.1 percentage of the highest binder | 0.8 percentage of the highest binder | 1.3 percentage of the highest binder | 0.5 percentage of the highest binder | 1.6 percentage of the highest binder | –
2 | CSCC[C@H](NC(=O)[C@H](CCCCN)NC(=O)[C@H](CS)NC(=O)[C@H](CCC(N)=O)NC(=O)[C@H](CCCCN)NC(=O)[C@H](CC(C)C)NC(=O)[C@H](CC(N)=O)NC(=O)[C@H](Cc1ccc(O)cc1)NC(=O)[C@H](CC(C)C)NC(=O)CNC(=O)[C@H](Cc1c[nH]cn1)NC(=O)[C@@H](N)CCCCN)C(=O)N[C@@H](CO)C(=O)N[C@@H](CC(C)C)C(=O)N[C@@H](CC(N)=O)C(=O)NCC(=O)N[C@@H](CCC(N)=O)C(=O)N[C@@H](CCCNC(=N)N)C(=O)NCC(=O)N[C@@H](CCC(=O)O)C(=O)N[C@@H](CS)C(=O)N[C@@H](Cc1c[nH]c2ccccc12)C(=O)O [IM2] | 109 | 1.7 ± 0.2* | 3.6 ± 0.1** | 1.4 ± 0.3 | 1.1 ± 0.1 | 100.0% | 0% | – | – | – | – | – | – | – | – | –
3 | N=C(N)NCCC[C@H](NC(=O)CNC(=O)[C@H](CCCCN)NC(=O)[C@H](CO)NC(=O)[C@@H]1CCCN1C(=O)[C@H](CCCNC(=N)N)NC(=O)[C@H](CS)NC(=O)[C@H](CCC(N)=O)NC(=O)[C@H](CCCCN)NC(=O)[C@H](CCCCN)NC(=O)[C@H](CCCCN)NC(=O)[C@H](Cc1ccc(O)cc1)NC(=O)[C@H](Cc1ccccc1)NC(=O)CNC(=O)[C@H](CCCCN)NC(=O)[C@@H](N)CCCCN)C(=O)N[C@@H](CCCCN)C(=O)N[C@@H](CCCNC(=N)N)C(=O)NCC(=O)N[C@@H](Cc1ccccc1)C(=O)N[C@@H](CS)C(=O)N[C@@H](Cc1c[nH]c2ccccc12)C(=O)O [IM3] (H-KKGFYKKKQCRPSKGRKRGFCW-OH; N-terminus and C-terminus assumed) | 101 | 28.7 ± 0.7** | 6.2 ± 0.2** | 24.7 ± 1.6** | 32.0 ± 0.7** | 2.3% | 97.7% | 3.2 percentage of the highest binder | 51.5 percentage of the highest binder | 100.0 percentage of the highest binder | 1.7 percentage of the highest binder | 63.7 percentage of the highest binder | 6.3 percentage of the highest binder | 10.4 percentage of the highest binder | 2.2 percentage of the highest binder | 2,496 fluorescence units
4 | CC(C)C[C@H](NC(=O)[C@H](C)NC(=O)[C@@H]1CCCN1C(=O)[C@H](Cc1c[nH]cn1)NC(=O)[C@H](CS)NC(=O)[C@H](CCC(N)=O)NC(=O)[C@H](CCCCN)NC(=O)[C@@H]1CCCN1C(=O)[C@H](Cc1c[nH]cn1)NC(=O)[C@H](Cc1ccccc1)NC(=O)[C@H](CC(N)=O)NC(=O)CNC(=O)[C@H](CC(N)=O)NC(=O)[C@@H](N)CCCNC(=N)N)C(=O)N[C@@H](CC(=O)O)C(=O)NCC(=O)N[C@@H](CCC(N)=O)C(=O)N[C@@H](CCCNC(=N)N)C(=O)NCC(=O)N[C@@H](CCCCN)C(=O)N[C@@H](CS)C(=O)N[C@@H](Cc1c[nH]c2ccccc12)C(=O)O [IM4] (H-RNGNFHPKQCHPALDGQRGKCW-OH; N-terminus and C-terminus assumed) | 105 | 1.0 ± 0.1 | 5.7 ± 0.1** | 2.8 ± 1.4 | 1.2 ± 0.2 | 100.0% | 0% | – | – | – | – | – | – | – | – | –
5 | CC[C@H](C)[C@H](NC(=O)CNC(=O)[C@H](CCCNC(=N)N)NC(=O)[C@H](CCCCN)NC(=O)[C@H](CCCNC(=N)N)NC(=O)CNC(=O)[C@H](CCCNC(=N)N)NC(=O)[C@H](CO)NC(=O)[C@@H]1CCCN1C(=O)[C@H](CCCCN)NC(=O)[C@H](CS)NC(=O)[C@H](CCC(N)=O)NC(=O)[C@H](CCCCN)NC(=O)[C@H](CCCNC(=N)N)NC(=O)[C@H](CCCCN)NC(=O)[C@H](Cc1ccc(O)cc1)NC(=O)[C@H](Cc1ccccc1)NC(=O)CNC(=O)[C@H](CCCCN)NC(=O)[C@@H](N)CCCNC(=N)N)C(=O)N[C@@H](CS)C(=O)N[C@@H](Cc1c[nH]c2ccccc12)C(=O)O [IM5] (H-RKGFYKRKQCKPSRGRKRGICW-OH; N-terminus and C-terminus assumed) | 93 | 23.4 ± 0.8** | 5.6 ± 0.1** | 20.5 ± 1.5** | 23.6 ± 0.1** | 3.6% | 96.4% | 0.2 percentage of the highest binder | 12.3 percentage of the highest binder | 16.9 percentage of the highest binder | 0.3 percentage of the highest binder | 7.6 percentage of the highest binder | 2.3 percentage of the highest binder | 2.7 percentage of the highest binder | 2.6 percentage of the highest binder | –
